Patent US11230538B2, “Herbicides” (SYNGENTA PARTICIPATIONS AG, priority 2016, dated 2022)

Key:
Type in all cases: in vivo
[1] = test system: Alopecurus myosuroides (ALOMY); experiment: B2 Post-emergence herbicidal activity; parameters: key: 5=total damage to plant; 0=no damage to plant; conditions: post-emergence application, evaluated after 13 days
Description: (§1) Seeds of a variety of test species were sown in standard soil in pots: Triticum aestivium (TRZAW), Avena fatua (AVEFA), Alopecurus myosuroides (ALOMY), Echinochloa crus-galli (ECHCG), Lolium perenne (LOLPE), Zea Mays (ZEAMX), Abutilon theophrasti (ABUTH), Amaranthus retroflexus (AMARE) and Setaria fabenri (SETFA). After 8 days cultivation (post-emergence) under controlled conditions in a glasshouse (at 24/16° C., day/night; 14 hours light; 65% humidity), the plants were sprayed with an aqueous spray solution derived from the formulation of the technical active ingredient in acetone I water (50:50) solution containing 0.5% Tween 20 (polyoxyethelyene sorbitan monolaurate, CAS RN 9005-64-5). The test plants were then grown in a glasshouse under controlled conditions (at 24/16° C., day/night; 14 hours light; 65% humidity) and watered twice daily. After 13 days, the test was evaluated (5=total damage to plant; 0=no damage to plant).

[2] = test system: Triticum aestivium (TRZAW); experiment: B2 Post-emergence herbicidal activity; parameters: key: 5=total damage to plant; 0=no damage to plant; conditions: post-emergence application, evaluated after 13 days
Description: as §1

Setaria fabenri (SETFA) = experiment: B2 Post-emergence herbicidal activity; parameters: key: 5=total damage to plant; 0=no damage to plant; conditions: post-emergence application, evaluated after 13 days
Description: as §1

Lolium perenne (LOLPE) = experiment: B1 Pre-emergence herbicidal activity; parameters: key to Pre-emergence herbicidal activity, LOLPE (damage score 0-5): 5=total damage to plant; 0=no damage to plant; conditions: pre-emergence application, evaluated after 13 days
Description: as §1, with “fabenr” for “fabenri”, “After” for “After 8 days”, “for one day (pre-emergence)” for “(post-emergence)”

[3] = test system: Alopecurus myosuroides (ALOMY); experiment: B1 Pre-emergence herbicidal activity; parameters: key: 5=total damage to plant; 0=no damage to plant; conditions: pre-emergence application, evaluated after 13 days
Description: as §1, with “fabenr” for “fabenri”, “After” for “After 8 days”, “for one day (pre-emergence)” for “(post-emergence)”

Avena fatua (AVEFA) = experiment: B1 Pre-emergence herbicidal activity; parameters: key: 5=total damage to plant; 0=no damage to plant; conditions: pre-emergence application, evaluated after 13 days
Description: as §1, with “fabenr” for “fabenri”, “After” for “After 8 days”, “for one day (pre-emergence)” for “(post-emergence)”

[4] = test system: Triticum aestivium (TRZAW); experiment: B1 Pre-emergence herbicidal activity; parameters: key: 5=total damage to plant; 0=no damage to plant; conditions: pre-emergence application, evaluated after 13 days
Description: as §1, with “fabenr” for “fabenri”, “After” for “After 8 days”, “for one day (pre-emergence)” for “(post-emergence)”

[5] = test system: Echinochloa crus-galli (ECHCG); experiment: B1 Pre-emergence herbicidal activity; parameters: key to Pre-emergence herbicidal activity, ECHCG (damage score 0-5): 5=total damage to plant; 0=no damage to plant; conditions: pre-emergence application, evaluated after 13 days
Description: as §1, with “fabenr” for “fabenri”, “After” for “After 8 days”, “for one day (pre-emergence)” for “(post-emergence)”

Setaria fabenr (SETFA) = experiment: B1 Pre-emergence herbicidal activity; parameters: key to Pre-emergence herbicidal activity, SETFA (damage score 0-5): 5=total damage to plant; 0=no damage to plant; conditions: pre-emergence application, evaluated after 13 days
Description: as §1, with “fabenr” for “fabenri”, “After” for “After 8 days”, “for one day (pre-emergence)” for “(post-emergence)”

[6] = test system: Echinochloa crus-galli (ECHCG); experiment: B2 Post-emergence herbicidal activity; conditions: post-emergence application, evaluated after 13 days
Description: as §1

| SMILES | Post-emergence herbicidal activity, ALOMY (damage score 0-5) ([1]; rate 1000 g/ha) | Post-emergence herbicidal activity, TRAZW (damage score 0-5) ([2]; rate 1000 g/ha) | Post-emergence herbicidal activity, SETFA (damage score 0-5) (Setaria fabenri (SETFA); rate 1000 g/ha) | Pre-emergence herbicidal activity, LOLPE (damage score 0-5) (Lolium perenne (LOLPE); rate 1000 g/ha) | Pre-emergence herbicidal activity, ALOMY (damage score 0-5) ([3]; rate 1000 g/ha) | Pre-emergence herbicidal activity, AVEFA (damage score 0-5) (Avena fatua (AVEFA); rate 1000 g/ha) | Pre-emergence herbicidal activity, TRAZW (damage score 0-5) ([4]; rate 1000 g/ha) | Pre-emergence herbicidal activity, ECHCG (damage score 0-5) ([5]; rate 1000 g/ha) | Pre-emergence herbicidal activity, SETFA (damage score 0-5) (Setaria fabenr (SETFA); rate 1000 g/ha) | Post-emergence herbicidal activity, ECHCG (damage score 0-5) ([6]; rate 1000 g/ha) | Post-emergence herbicidal activity, ALOMY (damage score 0-5) ([1]; rate 250 g/ha) | Post-emergence herbicidal activity, TRAZW (damage score 0-5) ([2]; rate 250 g/ha) | Post-emergence herbicidal activity, SETFA (damage score 0-5) (Setaria fabenri (SETFA); rate 250 g/ha) | Pre-emergence herbicidal activity, LOLPE (damage score 0-5) (Lolium perenne (LOLPE); rate 250 g/ha) | Pre-emergence herbicidal activity, ALOMY (damage score 0-5) ([3]; rate 250 g/ha) | Pre-emergence herbicidal activity, AVEFA (damage score 0-5) (Avena fatua (AVEFA); rate 250 g/ha) | Pre-emergence herbicidal activity, TRAZW (damage score 0-5) ([4]; rate 250 g/ha) | Pre-emergence herbicidal activity, ECHCG (damage score 0-5) ([5]; rate 250 g/ha) | Pre-emergence herbicidal activity, SETFA (damage score 0-5) (Setaria fabenr (SETFA); rate 250 g/ha) | Post-emergence herbicidal activity, ECHCG (damage score 0-5) ([6]; rate 250 g/ha) |
| --- | --- | --- | --- | --- | --- | --- | --- | --- | --- | --- | --- | --- | --- | --- | --- | --- | --- | --- | --- | --- |
| CCC(=O)N(c1ccc(-c2cncc(F)c2)nc1C(F)(F)F)C(C)C [Compound C100] | 0 | 0 | 5 | 1 | 0 | 1 | 0 | 3 | 5 | 4 | – | – | – | – | – | – | – | – | – | – |
| CCC(=O)N(Cc1ccc(Cl)cc1)c1ccc(-c2cncc(F)c2)nc1C(F)(F)F [Compound C101] | 0 | 0 | 2 | 0 | 0 | 1 | 0 | 1 | 1 | 2 | – | – | – | – | – | – | – | – | – | – |
| CCC(=O)N(Cc1cnc(Cl)s1)c1ccc(-c2cncc(F)c2)nc1C(F)(F)F [Compound C102] | 0 | 0 | 2 | 0 | 0 | 1 | 0 | 2 | 4 | 2 | – | – | – | – | – | – | – | – | – | – |
| CSCCN(C(=O)c1ccccc1)c1ccc(-c2cncc(F)c2)nc1C(F)(F)F [Compound C104] | – | – | – | – | – | – | – | – | – | – | 0 | 0 | 2 | 0 | 0 | 0 | 0 | 0 | 3 | 1 |
| COCC(=O)N(CC=C(C)C)c1ccc(-c2cncc(F)c2)nc1C(F)(F)F [Compound C106] | 0 | 0 | 5 | 1 | 0 | 2 | 0 | 3 | 4 | 4 | – | – | – | – | – | – | – | – | – | – |
| CC(C)C(=O)N(CC(=O)N(C)C)c1ccc(-c2cncc(F)c2)nc1C(F)(F)F [Compound C107] | 0 | 0 | 5 | 0 | 0 | 1 | 0 | 3 | 5 | 4 | – | – | – | – | – | – | – | – | – | – |
| CCC(=O)N(CC1CC1)c1ccc(-c2cncc(F)c2)nc1C(F)(F)F [Compound C108] | 0 | 0 | 4 | 1 | 0 | 1 | 0 | 2 | 5 | 3 | – | – | – | – | – | – | – | – | – | – |
